# Patent publication US4212939A, “Substrate solution for carboxylic ester hydrolase determination” (The University of Alabama, priority 1977, dated 1980)
# Columns and labels:
# [1] = test system: porcine liver esterase; test: Activation of ester hydrolase in the vinyl ester reagent system (ADH/NADH coupled, 340 nm); type: biochemical; conditions: for activation of porcine liver esterase by bile salt: vinyl omega-phenyl octanoate as substrate, sodium taurodeoxycholate zero to 25 mM, sodium cholate zero to 10 mM, sodium chenodeoxycholate zero to 15 mM
# Text: (§1) In accordance with the preferred embodiments of this invention, we prefer to carry out the analysis of carboxylic acid ester hydrolase by admixing an unknown, suspected of containing this enzyme with a reagent system wherein first a vinyl ester of a carboxylic acid is hydrolyzed by the enzyme into the carboxylic acid and unstable vinyl alcohol. As a second step, the vinyl alcohol isomerizes to acetaldehyde. This sequence of conversions is indicated diagrammatically as follows: [drawing 1] The acetaldehyde of reaction (2) may be detected by a variety of means known to the prior art. For example, enzymatic methods are illustrated below in reactions (3a) and (3b), and involve monitoring the disappearance (3a) or appearance (3b) of NADH by measuring its absorbance or fluorescence at suitable wavelengths. The velocity of reactions (3a) or (3b) may then be equated with reaction (1) when the components of the mixture are all in sufficient excess so that only the ester hydrolase activity is limiting. Chemical methods (3c) may include any nonenzymatic means for the quantitative analysis of acetaldehyde. [formula]
# (§2) The range of concentrations of sodium deoxycholate (or its free acid) is from zero to about 25 mM, but the preferred range is about 15 to 21 mM for porcine pancreatic lipase, crude human pancreas extract, and lipase in human blood serum.
# (2) Buffer Solution. While the method of preparation of the buffer solution is not critical, one method for forming it is as follows: Weigh into a one liter beaker 3.134 gm 1, 1, 3, 3-tetramethyl-1-phenoxy (polyethoxy) butane (n=polydisperse, average 9) and 12.912 gm 1, 1, 3, 3-tetramethyl-1-phenoxy(polyethoxy)n butane, 70% (n=polydisperse, average 30). Add about 800 ml of deionized or glass redistilled water and stir with a magnetic stirring bar until the detergents are dissolved. Add 9.534 gm sodium deoxycholate and continue stirring until dissolved. Then add 25.652 gm tetrasodium pyrophosphate (Na4 P2 O7.10 H2 O) and stir until the crystals dissolve. Add with stirring in approximately five equal portions a total of 231.51 gm of potassium chloride, allowing each portion to almost completely dissolve before adding the next. Stop the stirring when all of the KCl has dissolved. Add 1.15 gm bovine serum albumin by sprinkling on the liquid surface. When all of the BSA has dissolved, begin stirring again and add more water to bring the volume up to about 950 ml. Adjust the pH to 9.1 with dilute HCl solution. […] Quantitatively transfer the solution to a one liter volumetric flask and add water to the mark. […] After any endogenous acetaldehyde in the reagent has been reduced and the corresponding oxidation of NADH has slowed to the normal blank rate, the absorbance at 340 nm in a 1 cm light path will be approximately 1.5. […]
# [2] = molecular target: T1, porcine pancreatic lipase (Sus scrofa, UniProt P00591); test: as above; type: biochemical; conditions: for activation of porcine pancreatic lipase by bile salt: vinyl omega-phenyl octanoate as substrate, sodium taurodeoxycholate zero to 25 mM, sodium cholate zero to 10 mM, sodium chenodeoxycholate zero to 15 mM; for activation of porcine pancreatic lipase by quaternary ammonium compound: in the absence of bile salts
# T1 sequence (P00591 1-450): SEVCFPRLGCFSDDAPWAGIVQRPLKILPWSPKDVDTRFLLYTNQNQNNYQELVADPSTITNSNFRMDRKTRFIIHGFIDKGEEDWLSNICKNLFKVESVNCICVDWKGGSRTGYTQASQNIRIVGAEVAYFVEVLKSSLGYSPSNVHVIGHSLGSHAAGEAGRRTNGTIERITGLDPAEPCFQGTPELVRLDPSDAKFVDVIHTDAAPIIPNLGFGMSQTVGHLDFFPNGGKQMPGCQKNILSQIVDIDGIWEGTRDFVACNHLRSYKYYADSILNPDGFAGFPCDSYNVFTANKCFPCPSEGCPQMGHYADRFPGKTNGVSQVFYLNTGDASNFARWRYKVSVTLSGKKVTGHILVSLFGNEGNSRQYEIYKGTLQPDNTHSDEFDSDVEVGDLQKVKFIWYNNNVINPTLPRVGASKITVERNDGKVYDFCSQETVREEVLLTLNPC
# Text: as §1, §2
# Activation of porcine pancreatic lipase and crude human pancreas extract can also be accomplished with various cationic alkyl and alkyl-aryl quaternary ammonium compounds such as cetyltrimethyl ammonium bromide (CTAB) and cetyldimethylbenzyl ammonium chloride (CDMBAC) in the absence of bile salts. The useful range of CTAB concentrations for activation of porcine pancreatic lipase is from about 4 to 12 mM, but most preferred is from 7 to 9 mM. The useful range of CDMBAC concentrations for activation of porcine pancreatic lipase is from about 2 to 9 mM, but most preferred is about 5 to 9 mM. When used together sodium deoxycholate (or its acid) and either CTAB or CDMBAC activate porcine pancreatic lipase about 10 fold over the activity without these components together. Sodium deoxycholate and CTAB are useful when used together in the ranges of zero to 25 mM and zero to 15 mM, respectively, but the preferred concentrations are 10 mM to 20 mM sodium deoxycholate and 4 mM to 10 mM CTAB. When deoxycholate and CDMBAC are used together for the activation of porcine pancreatic lipase the useful concentrations of deoxycholate are from zero to about 20 mM, but the preferred concentrations are 10 mM to 20 mM deoxycholate and 10 mM to 15 mM CDMBAC.
# (2) Buffer Solution. While the method of preparation of the buffer solution is not critical, one method for forming it is as follows: Weigh into a one liter beaker 3.134 gm 1, 1, 3, 3-tetramethyl-1-phenoxy (polyethoxy) butane (n=polydisperse, average 9) and 12.912 gm 1, 1, 3, 3-tetramethyl-1-phenoxy(polyethoxy)n butane, 70% (n=polydisperse, average 30). Add about 800 ml of deionized or glass redistilled water and stir with a magnetic stirring bar until the detergents are dissolved. Add 9.534 gm sodium deoxycholate and continue stirring until dissolved. Then add 25.652 gm tetrasodium pyrophosphate (Na4 P2 O7.10 H2 O) and stir until the crystals dissolve. Add with stirring in approximately five equal portions a total of 231.51 gm of potassium chloride, allowing each portion to almost completely dissolve before adding the next. Stop the stirring when all of the KCl has dissolved. […]
# [3] = molecular target: T1, porcine pancreatic lipase; conditions: same conditions as glycerol trioleate; cited from earlier work
# [4] = molecular target: T2, crude human pancreas extract (human lipase) (Homo sapiens, UniProt P16233); test: Activation of ester hydrolase in the vinyl ester reagent system (ADH/NADH coupled, 340 nm); type: biochemical; conditions: for activation of crude human pancreas extract by quaternary ammonium compound: in the absence of bile salts
# T2 construct: vinyl ester hydrolysis coupled to ADH/NADH
# T2 sequence (P16233 17-465): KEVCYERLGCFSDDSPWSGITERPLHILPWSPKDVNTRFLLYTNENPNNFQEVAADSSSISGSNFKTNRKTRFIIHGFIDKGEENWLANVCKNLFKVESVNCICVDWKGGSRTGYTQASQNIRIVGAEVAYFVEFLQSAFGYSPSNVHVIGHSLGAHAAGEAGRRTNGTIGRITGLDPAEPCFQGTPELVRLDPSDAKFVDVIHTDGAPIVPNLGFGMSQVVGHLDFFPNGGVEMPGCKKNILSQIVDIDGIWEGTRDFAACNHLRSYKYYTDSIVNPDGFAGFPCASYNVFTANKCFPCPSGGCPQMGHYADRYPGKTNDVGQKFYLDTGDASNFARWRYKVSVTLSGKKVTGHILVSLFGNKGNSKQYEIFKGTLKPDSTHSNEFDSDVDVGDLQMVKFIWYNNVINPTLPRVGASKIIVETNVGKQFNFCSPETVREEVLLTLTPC
# Text: As a second step, the vinyl alcohol isomerizes to acetaldehyde. […] The acetaldehyde of reaction (2) may be detected by a variety of means known to the prior art. For example, enzymatic methods are illustrated below in reactions (3a) and (3b), and involve monitoring the disappearance (3a) or appearance (3b) of NADH by measuring its absorbance or fluorescence at suitable wavelengths. The velocity of reactions (3a) or (3b) may then be equated with reaction (1) when the components of the mixture are all in sufficient excess so that only the ester hydrolase activity is limiting. Chemical methods (3c) may include any nonenzymatic means for the quantitative analysis of acetaldehyde.
# The useful range of CTAB concentrations for activation of porcine pancreatic lipase is from about 4 to 12 mM, but most preferred is from 7 to 9 mM. The useful range of CDMBAC concentrations for activation of porcine pancreatic lipase is from about 2 to 9 mM, but most preferred is about 5 to 9 mM. […] Sodium deoxycholate and CTAB are useful when used together in the ranges of zero to 25 mM and zero to 15 mM, respectively, but the preferred concentrations are 10 mM to 20 mM sodium deoxycholate and 4 mM to 10 mM CTAB. When deoxycholate and CDMBAC are used together for the activation of porcine pancreatic lipase the useful concentrations of deoxycholate are from zero to about 20 mM, but the preferred concentrations are 10 mM to 20 mM deoxycholate and 10 mM to 15 mM CDMBAC.
# (2) Buffer Solution. While the method of preparation of the buffer solution is not critical, one method for forming it is as follows: Weigh into a one liter beaker 3.134 gm 1, 1, 3, 3-tetramethyl-1-phenoxy (polyethoxy) butane (n=polydisperse, average 9) and 12.912 gm 1, 1, 3, 3-tetramethyl-1-phenoxy(polyethoxy)n butane, 70% (n=polydisperse, average 30). Add about 800 ml of deionized or glass redistilled water and stir with a magnetic stirring bar until the detergents are dissolved. […] Quantitatively transfer the solution to a one liter volumetric flask and add water to the mark. […]
structure (smiles),measurement,setting,value
"C[C@H](CCC(=O)NCCS(=O)(=O)O)[C@H]1CC[C@H]2[C@@H]3CC[C@@H]4C[C@H](O)CC[C@]4(C)[C@H]3C[C@H](O)[C@]12C [Sodium taurodeoxycholate, sodium taurodeoxycholate]",activation of porcine liver esterase by bile salt,[1],slightly activate
same,activation of porcine pancreatic lipase by bile salt,[2],slightly activate
C=COC(=O)CCCCCCC/C=C\CCCCCCCC [vinyl oleate],effectiveness as substrate relative to glycerol trioleate,[3],29.4%
"CCCCCCCCCCCCCCCC[N+](C)(C)C.[Br-] [CTAB, cetyltrimethyl ammonium bromide]",activation of crude human pancreas extract by quaternary ammonium compound,[4],Activation
same,activation of porcine pancreatic lipase by quaternary ammonium compound,[2],Activation
"CCCCCCCCCCCCCCCC[N+](C)(C)Cc1ccccc1.[Cl-] [CDMBAC, cetyldimethylbenzyl ammonium chloride]",activation of crude human pancreas extract by quaternary ammonium compound,[4],Activation
same,activation of porcine pancreatic lipase by quaternary ammonium compound,[2],Activation
C[C@H](CCC(=O)O)[C@H]1CC[C@H]2[C@@H]3[C@H](O)C[C@@H]4C[C@H](O)CC[C@]4(C)[C@H]3CC[C@]12C [sodium chenodeoxycholate],activation of porcine liver esterase by bile salt,[1],slightly activate
same,activation of porcine pancreatic lipase by bile salt,[2],slightly activate
C[C@H](CCC(=O)O)[C@H]1CC[C@H]2[C@@H]3CC[C@@H]4C[C@H](O)CC[C@]4(C)[C@H]3C[C@H](O)[C@]12C [sodium deoxycholate],activation of porcine liver esterase by sodium deoxycholate,[1]; concentrations up to about 25 mM,only slightly activated
same,activation of human lipase by deoxycholate alone compared with the combination with CDMBAC,"[4]; deoxycholate concentration about above 4 mM, in the absence of CDMBAC",activated to a much greater extent
C[C@H](CCC(=O)O)[C@H]1CC[C@H]2[C@@H]3[C@H](O)C[C@@H]4C[C@H](O)CC[C@]4(C)[C@H]3C[C@H](O)[C@]12C [sodium cholate],activation of porcine liver esterase by bile salt,[1],slightly activate
same,activation of porcine pancreatic lipase by bile salt,[2],slightly activate
